Measured values as given in PMC5215806 (Chemical Science, 2016).

Legend:
FzmM (His6-FzmM) = test: steady-state kinetics of N-hydroxylation; format: biochemical, Streptomyces sp. NRRL S-149; details: read-out: Km (apparent); co-substrates O2, NADPH, FAD
FzmQ (His6-FzmQ) = test: spectrophotometric assay of CoA formation; format: biochemical, Streptomyces sp. NRRL S-149; details: read-out: Km (apparent); co-substrate acetyl-CoA

Row | Km (FzmM (His6-FzmM)) [µM] | Km (FzmQ (His6-FzmQ)) [µM] | Structure (SMILES)
1 | 790 ± 70 |  | N[C@@H](CC(=O)O)C(=O)O [L-Asp]
2 |  | 4.2 ± 0.8 | NNC(CC(=O)O)C(=O)O (centres unmarked) [hydrazinosuccinate]
